For assay [1], the target named is T1, SW1573 HiBiT-KRASG12C (Homo sapiens, UniProt P01116, G12C).
T1 construct: expressed in transfected cells
Nature of the assay: HiBiT degradation assay (G12C), SW1573 HiBiT-KRASG12C cells.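 For DC50: Letter grades: C is 1000 to 3000 nM and D is above 3000 nM.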 In kind it is cell-based. As to conditions: 24 hours treatment; for DC50: HiBiT luminescence; for Dmax: maximum degradation observed. The procedure: Reagents. SW1573 (CRL-2170), AsPC-1 (CRL-1682), and SW620 (CCL-227) cells were purchased from ATCC. SW1573 cells are homozygous for the G12C mutation in KRAS, AsPC-1 cells are homozygous for the G12D mutation, and SW620 cells are homozygous for the G12V mutation. SW1573 cells were cultured in DMEM+F12+Glutamax (+Sodium Bicarbonate, +sodium pyruvate, ThermoFisher scientific, #10565) supplemented with 10% FBS (ThermoFisher scientific, #2060357) and 1% Antibiotic-Antimycotic (ThermoFisher scientific, #15240096). AsPC-1 cells were cultured in GIBCO RPMI-1640 (ThermoFisher scientific, catalog #61870-036 with Glutamax, No HEPES, No Na Pyruvate) supplemented with 10% FBS (ThermoFisher scientific, catalog #2060357) and 1× Penicillin-Streptomycin (ThermoFisher scientific, catalog #15140122, 10000 U/ml, 100×). SW620 cells were cultured in DMEM Glutamax (ThermoFisher scientific, catalog #10566016) supplemented with 10% FBS (ThermoFisher scientific, catalog #2060357) and 1× Penicillin-Streptomycin (ThermoFisher scientific, catalog #15140122, 10000 U/ml, 100×). For degradation assays, 384 well plates were used. Alamar blue was purchased from ThermoFisher scientific (A50101) and used according to manufacturer instructions. The Nano-Glo® HiBiT Lytic Detection System and Nano-Glo® HiBiT Blotting System were purchased from Promega (#N3050 and #N2410) and used according to manufacturer instructions.
HiBiT-tagged cell line generation. To create the SW1573 HiBiT-KRASG12C cell line, the nucleotide sequence encoding the 11 amino acid HiBiT tag from Promegal was appended to the N-terminus of the KRASG12C coding sequence. This synthesized DNA was cloned into a modified pcDNA3.1 vector under the control of the thymidine kinase (TK) promoter. This HiBiT-KRASG12C expressing plasmid was transfected into parental SW1573 cells and colonies were selected using 400 μg/mL zeocin. The resulting clonal lines were screened for expression of HiBiT-KRASG12C protein using Nano-Glo® HiBiT Blotting System. A luminescent band of the correct size for HiBiT-KRASG12C was detected in several clones. Clone E6 was selected for further studies.
HiBiT degradation assays (G12C and G12D). Either SW1573 HiBiT-KRasG12C or AsPC-1 HiBiT-KRasG12D cells were plated at 9000 or 15,000 cells/well in a 384 well plate (Corning #3770). Compounds of the present disclosure and positive controls were diluted in the appropriate cell media and applied to the plated cells resulting in a final concentration titration of 10 μM to 508 pM in 0.5% DMSO. Gambogic acid was used as a positive control for cytotoxicity and titrated from 10 μM to 78 nM. All assays were performed in triplicate. Cells were treated with compounds for 24 hours at 37° C. in an incubator containing 5% CO2. Following treatment, alamar blue was used to determine if any compounds led to a loss in cell viability after 24 hours. The 10× alamar blue reagent was added to a final concentration of 1× as recommended by the manufacturer and cells were returned to the incubator for 4 hours. Plates were then allowed to equilibrate to room temperature and fluorescence was measured using a Perkin-Elmer EnVision. After completion of the fluorescence read, the liquid from each well was removed and the cells were washed with PBS. The Nano-Glo® HiBiT detection reagent was prepared according to the manufacturer's instructions and added to each well after the PBS wash was removed. Following incubation at room temperature for 45 minutes, the luminescence was read using the ultra-sensitive luminescence aperture on the Envision instrument.
Data analysis. Fluorescence values from the alamar blue treatment were normalized to the DMSO-only control for each compound titration. […]

Assay [2] has as its target T2, AsPC-1 HiBiT-KRASG12D (Homo sapiens, UniProt P01116, G12D).
T2 construct: insert the HiBiT tag onto the N-terminus of one or more of the endogenous KRAS alleles; endogenous in cells; host or cells: AsPC-1 (ATCC CRL-1682), CRISPR-Cas9 knock-in clone, one tagged allele
Nature of the assay: HiBiT degradation assay (G12D), AsPC-1 HiBiT-KRASG12D cells. It counts as cell-based. The conditions noted are these: 24 hours treatment; for Dmax: ASPC1, AsPC-1 HiBiT-KRASG12D cells, maximum degradation observed; for DC50: AsPC-1 HiBiT-KRASG12D cells, HiBiT luminescence. An outline of the steps:
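AsPC-1 cells (homozygous G12D) carrying a CRISPR knock-in N-terminal HiBiT tag on endogenous KRAS were treated with compounds for 24 hours at 37° C, 5% CO2, in triplicate. Alamar blue viability was read first, then cells were washed and lysed with Nano-Glo HiBiT reagent for 45 minutes before luminescence reading.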

T1 sequence (P01116 1-188 isoform P01116-2 G12C): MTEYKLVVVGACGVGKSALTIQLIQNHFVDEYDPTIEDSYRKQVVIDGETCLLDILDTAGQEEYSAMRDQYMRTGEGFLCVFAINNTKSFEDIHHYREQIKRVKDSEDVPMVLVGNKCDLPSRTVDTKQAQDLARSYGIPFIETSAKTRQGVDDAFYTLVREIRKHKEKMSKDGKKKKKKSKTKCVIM
T2 sequence (P01116 1-188 isoform P01116-2 G12D): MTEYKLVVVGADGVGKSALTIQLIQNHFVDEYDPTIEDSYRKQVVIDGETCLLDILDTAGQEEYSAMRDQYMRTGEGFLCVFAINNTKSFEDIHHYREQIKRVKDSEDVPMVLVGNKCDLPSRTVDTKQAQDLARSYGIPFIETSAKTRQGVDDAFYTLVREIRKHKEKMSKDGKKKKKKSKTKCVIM

For `CCc1cccc2cc(O)cc(-c3ncc4c(N5CC6CCC(C5)N6)nc(OC[C@@]56CCCN5[C@H](COCC(=O)N[C@H](C(=O)N5C[C@H](O)C[C@H]5C(=O)N[C@@H](C)c5ccc(-c7scnc7C)cc5)C(C)(C)C)CC6)nc4c3F)c12` [Compound 2, (2S,4R)-1-[(2S)-2-(2-{[(3S,7aS)-7a-{[(4-{3,8-diazabicyclo[3.2.1]octan-3-yl}-7-(8-ethyl-3-hydroxynaphthalen-1-yl)-8-fluoropyrido[4,3-d]pyrimidin-2-yl)oxy]methyl}-hexahydro-1H-pyrrolizin-3-yl]methoxy}acetamido)-3,3-dimethylbutanoyl]-4-hydroxy-N-[(1S)-1-[4-(4-methyl-1,3-thiazol-5-yl)phenyl]ethyl]pyrrolidine-2-carboxamide], the DC50 is 1 to 3 µM in assay [1] and below 0.6 µM in assay [2]. Also, the values for the Dmax in assay [1] and in assay [2] were 20 to 60% and 80 to 100%, respectively.

Consider `Cc1ccc2[nH]ncc2c1-c1ncc2c(N3CC4CCC(C3)N4)nc(OCCN3CCC(COc4cc([C@H](C(=O)N5C[C@H](O)C[C@H]5C(=O)N[C@@H](C)c5ccc(-c6scnc6C)cc5)C(C)C)on4)CC3)nc2c1F` [Compound 3, (2S,4R)-1-[(2R)-2-[3-[[1-[2-[4-(3,8-diazabicyclo[3.2.1]octan-3-yl)-8-fluoro-7-(5-methyl-1H-indazol-4-yl)pyrido[4,3-d]pyrimidin-2-yl]oxyethyl]-4-piperidyl]methoxy]isoxazol-5-yl]-3-methyl-butanoyl]-4-hydroxy-N-[(1S)-1-[4-(4-methylthiazol-5-yl)phenyl]ethyl]pyrrolidine-2-carboxamide], for which the DC50 in assay [1] and in assay [2] was above 3 µM throughout.

For `CCc1cccc2cc(O)cc(-c3ncc4c(N5CC6CCC(C5)N6)nc(OC[C@@]56CCCN5[C@H](COC(=O)N5CCN(c7cc([C@@H](C(=O)N8C[C@H](O)C[C@H]8C(=O)N[C@@H](C)c8ccc(-c9scnc9C)cc8)C(C)C)on7)CC5)CC6)nc4c3F)c12` [Compound 4], the DC50 was above 3 µM in assay [1] and below 0.6 µM in assay [2]. The Dmax in assay [2] was 20 to 60%.

Regarding `CCc1cccc2cc(O)cc(-c3ncc4c(N5CC6CCC(C5)N6)nc(OC[C@@]56CCCN5[C@H](COC(=O)N5CCN(c7cc([C@H](C(=O)N8C[C@H](O)C[C@H]8C(=O)N[C@@H](C)c8ccc(-c9scnc9C)cc8)C(C)C)on7)CC5)CC6)nc4c3F)c12` [Compound 5], the DC50 in assay [1] was at most 0.6 µM; in assay [2] it was below 0.6 µM. Further, the maximal degradation (Dmax) was in the range of 60 to 80% in assay [1] and 80 to 100% in assay [2].

`CCc1cccc2cc(O)cc(-c3ncc4c(N5CC6CCC(C5)N6)nc(OC[C@]56CCCN5[C@@H](COC(=O)N5CCN(c7cc([C@@H](C(=O)N8C[C@H](O)C[C@H]8C(=O)N[C@@H](C)c8ccc(-c9scnc9C)cc8)C(C)C)on7)CC5)CC6)nc4c3F)c12` [Compound 6] returned a 50% degradation concentration (DC50) in assay [1] above 3 µM. In addition, in assay [2], the maximal degradation (Dmax) is below 20% and the half-maximal degradation concentration (DC50) was 1 to 3 µM.

Take `CCc1cccc2cc(O)cc(-c3ncc4c(N5CC6CCC(C5)N6)nc(OCCN5CCC(COc6cc([C@@H](C(=O)N7C[C@H](O)C[C@H]7C(=O)N[C@@H](C)c7ccc(-c8scnc8C)cc7)C(C)C)on6)CC5)nc4c3F)c12` [Compound 8, (2S,4R)-1-[(2S)-2-[3-[[1-[2-[4-(3,8-diazabicyclo[3.2.1]octan-3-yl)-7-(8-ethyl-3-hydroxy-1-naphthyl)-8-fluoro-pyrido[4,3-d]pyrimidin-2-yl]oxyethyl]-4-piperidyl]methoxy]isoxazol-5-yl]-3-methyl-butanoyl]-4-hydroxy-N-[(1S)-1-[4-(4-methylthiazol-5-yl)phenyl]ethyl]pyrrolidine-2-carboxamide]: the DC50 is above 3 µM in assay [1] and 1 to 3 µM in assay [2]. Also, in assay [2], the Dmax is 20 to 60%.

The record behind these values is patent publication US20250206732A1, “COMPOUNDS AND METHODS FOR THE TARGETED DEGRADATION OF KRAS” (Arvinas Operations, Inc., priority 2022, published 2025).
